Results as given in ChEMBL document CHEMBL1759834, “Synthesis, stereochemistry, antimicrobial evaluation and QSAR studies of 2,6-diaryltetrahydropyran-4-one thiosemicarbazones” (2011).
≈ marks a conversion by molar mass, not a printed value.

Experiments:
Staphylococcus aureus = assay: Antibacterial activity against Staphylococcus aureus ATCC 25825 after 24 hrs by twofold serial dilution method; format: functional; settings: for MIC: Staphylococcus aureus, ATCC 25825, 24 h
Escherichia coli = assay: Antibacterial activity against Escherichia coli ATCC 25835 after 24 hrs by twofold serial dilution method; format: functional; settings: for MIC: Escherichia coli, ATCC 25835, 24 h
Pseudomonas aeruginosa = assay: Antibacterial activity against Pseudomonas aeruginosa ATCC 10145 after 24 hrs by twofold serial dilution method; format: functional; settings: for MIC: Pseudomonas aeruginosa, ATCC 10145, 24 h
Salmonella typhi = assay: Antibacterial activity against Salmonella typhi ATCC 24915 after 24 hrs by twofold serial dilution method; format: functional, Salmonella enterica subsp. enterica serovar Typhi; settings: for MIC: Salmonella enterica, ATCC 24915, 24 h
Bacillus subtilis = assay: Antibacterial activity against Bacillus subtilis ATCC 451 after 24 hrs by twofold serial dilution method; format: functional; settings: for MIC: Bacillus subtilis, ATCC 451, 24 h
Klebsiella pneumoniae = assay: Antibacterial activity against Klebsiella pneumoniae ATCC 15490 after 24 hrs by twofold serial dilution method; format: functional; settings: for MIC: Klebsiella pneumoniae, ATCC 15490, 24 h
Cryptococcus neoformans = assay: Antifungal activity against Cryptococcus neoformans after 72 to 96 hrs by twofold serial dilution method; format: functional; settings: for MIC: Cryptococcus neoformans
Candida albicans = assay: Antifungal activity against Candida albicans after 24 hrs by twofold serial dilution method; format: functional; settings: for MIC: Candida albicans, 24 h
Aspergillus niger = assay: Antifungal activity against Aspergillus niger after 72 to 96 hrs by twofold serial dilution method; format: functional; settings: for MIC: Aspergillus niger

Compound | -logMIC (Staphylococcus aureus) | MIC (Staphylococcus aureus) | -logMIC (Escherichia coli) | MIC (Escherichia coli) | -logMIC (Pseudomonas aeruginosa) | MIC (Pseudomonas aeruginosa) | MIC (Salmonella typhi) | -logMIC (Bacillus subtilis) | MIC (Bacillus subtilis) | -logMIC (Klebsiella pneumoniae) | MIC (Klebsiella pneumoniae) | -logMIC (Cryptococcus neoformans) | MIC (Cryptococcus neoformans) | -logMIC (Candida albicans) | MIC (Candida albicans) | -logMIC (Aspergillus niger) | MIC (Aspergillus niger) | -logMIC (Salmonella typhi)
COc1cccc([C@H]2O[C@@H](c3cccc(OC)c3)[C@H](C)/C(=N/NC(=S)Nc3ccccc3)[C@H]2C)c1 | 4.903 | 12.5 µg/mL (≈ 25.5 µM) | 4.301 | 50 µg/mL (≈ 102 µM) | 3.698 | 200 µg/mL (≈ 408 µM) | 50 µg/mL (≈ 102 µM) | 4.903 | 12.5 µg/mL (≈ 25.5 µM) | 4 | 100 µg/mL (≈ 204 µM) | 4 | 100 µg/mL (≈ 204 µM) | 4.602 | 25 µg/mL (≈ 51.1 µM) | 4 | 100 µg/mL (≈ 204 µM) | 
C[C@@H]1/C(=N\NC(N)=S)[C@@H](C)[C@H](c2ccc(Br)cc2)O[C@@H]1c1ccc(Br)cc1 | 4.602 | 25 µg/mL (≈ 48.9 µM) | 4.301 | 50 µg/mL (≈ 97.8 µM) | 4.903 | 12.5 µg/mL (≈ 24.4 µM) | 25 µg/mL (≈ 48.9 µM) | 4.301 | 50 µg/mL (≈ 97.8 µM) | 4.602 | 25 µg/mL (≈ 48.9 µM) | 4.301 | 50 µg/mL (≈ 97.8 µM) | 4.301 | 50 µg/mL (≈ 97.8 µM) | 3.698 | 200 µg/mL (≈ 391 µM) | 
C[C@@H]1/C(=N\NC(=S)Nc2ccccc2)[C@@H](C)[C@H](c2ccccc2Cl)O[C@@H]1c1ccccc1Cl | 4.301 | 50 µg/mL (≈ 100 µM) | 4.602 | 25 µg/mL (≈ 50.2 µM) | 4.301 | 50 µg/mL (≈ 100 µM) | 25 µg/mL (≈ 50.2 µM) | 4.301 | 50 µg/mL (≈ 100 µM) | 4.903 | 12.5 µg/mL (≈ 25.1 µM) | 4.602 | 25 µg/mL (≈ 50.2 µM) | 4.301 | 50 µg/mL (≈ 100 µM) | 3.698 | 200 µg/mL (≈ 401 µM) | 
C[C@@H]1/C(=N\NC(=S)Nc2ccccc2)[C@@H](C)[C@H](c2ccc(Cl)cc2)O[C@@H]1c1ccc(Cl)cc1 | 4.602 | 25 µg/mL (≈ 50.2 µM) | 4 | 100 µg/mL (≈ 201 µM) | 5.204 | 6.25 µg/mL (≈ 12.5 µM) | 25 µg/mL (≈ 50.2 µM) | 4.602 | 25 µg/mL (≈ 50.2 µM) | 4.903 | 12.5 µg/mL (≈ 25.1 µM) | 5.204 | 6.25 µg/mL (≈ 12.5 µM) | 4.903 | 12.5 µg/mL (≈ 25.1 µM) | 4.301 | 50 µg/mL (≈ 100 µM) | 
C[C@@H]1/C(=N\NC(=S)Nc2ccccc2)[C@@H](C)[C@H](c2cccc(Cl)c2)O[C@@H]1c1cccc(Cl)c1 | 4.301 | 50 µg/mL (≈ 100 µM) | 4 | 100 µg/mL (≈ 201 µM) | 4.602 | 25 µg/mL (≈ 50.2 µM) | 12.5 µg/mL (≈ 25.1 µM) | 4.602 | 25 µg/mL (≈ 50.2 µM) | 4.903 | 12.5 µg/mL (≈ 25.1 µM) | 4.602 | 25 µg/mL (≈ 50.2 µM) | 4.602 | 25 µg/mL (≈ 50.2 µM) | 4 | 100 µg/mL (≈ 201 µM) | 
C[C@@H]1/C(=N\NC(N)=S)[C@@H](C)[C@H](c2ccc(F)cc2)O[C@@H]1c1ccc(F)cc1 | 4.301 | 50 µg/mL (≈ 128 µM) | 4.301 | 50 µg/mL (≈ 128 µM) | 4 | 100 µg/mL (≈ 257 µM) | 25 µg/mL (≈ 64.2 µM) | 4.602 | 25 µg/mL (≈ 64.2 µM) | 4.301 | 50 µg/mL (≈ 128 µM) | 4.602 | 25 µg/mL (≈ 64.2 µM) | 4 | 100 µg/mL (≈ 257 µM) | 4 | 100 µg/mL (≈ 257 µM) | 
CC[C@@H]1/C(=N/NC(=S)Nc2ccccc2)C[C@@H](c2ccccc2)O[C@H]1c1ccccc1 | 4.301 | 50 µg/mL (≈ 116 µM) | 4 | 100 µg/mL (≈ 233 µM) | 4.602 | 25 µg/mL (≈ 58.2 µM) | 50 µg/mL (≈ 116 µM) | 4 | 100 µg/mL (≈ 233 µM) | 4 | 100 µg/mL (≈ 233 µM) | 4.903 | 12.5 µg/mL (≈ 29.1 µM) | 4 | 100 µg/mL (≈ 233 µM) | 4.301 | 50 µg/mL (≈ 116 µM) | 
C[C@@H]1/C(=N\NC(N)=S)[C@@H](C)[C@H](c2ccc(Cl)cc2)O[C@@H]1c1ccc(Cl)cc1 | 4.602 | 25 µg/mL (≈ 59.2 µM) | 4.301 | 50 µg/mL (≈ 118 µM) | 4.301 | 50 µg/mL (≈ 118 µM) | 25 µg/mL (≈ 59.2 µM) | 4.602 | 25 µg/mL (≈ 59.2 µM) | 4.602 | 25 µg/mL (≈ 59.2 µM) | 4.602 | 25 µg/mL (≈ 59.2 µM) | 4.602 | 25 µg/mL (≈ 59.2 µM) | 4 | 100 µg/mL (≈ 237 µM) | 
CC[C@@H]1/C(=N/NC(N)=S)C[C@@H](c2ccccc2)O[C@H]1c1ccccc1 | 4.301 | 50 µg/mL (≈ 141 µM) | 4.602 | 25 µg/mL (≈ 70.7 µM) | 4 | 100 µg/mL (≈ 283 µM) | 50 µg/mL (≈ 141 µM) | 4.301 | 50 µg/mL (≈ 141 µM) | 4 | 100 µg/mL (≈ 283 µM) | 4.301 | 50 µg/mL (≈ 141 µM) | 3.698 | 200 µg/mL (≈ 566 µM) | 3.698 | 200 µg/mL (≈ 566 µM) | 
C[C@@H]1/C(=N\NC(=S)Nc2ccccc2)[C@@H](C)[C@H](c2ccc(F)cc2)O[C@@H]1c1ccc(F)cc1 | 4.301 | 50 µg/mL (≈ 107 µM) | 4 | 100 µg/mL (≈ 215 µM) | 4.903 | 12.5 µg/mL (≈ 26.8 µM) | 25 µg/mL (≈ 53.7 µM) | 4.301 | 50 µg/mL (≈ 107 µM) | 4.301 | 50 µg/mL (≈ 107 µM) | 5.204 | 6.25 µg/mL (≈ 13.4 µM) | 4 | 100 µg/mL (≈ 215 µM) | 4 | 100 µg/mL (≈ 215 µM) | 4.602
Cc1ccc([C@H]2O[C@@H](c3ccc(C)cc3)[C@H](C)/C(=N/NC(N)=S)[C@H]2C)cc1 | 4.301 | 50 µg/mL (≈ 131 µM) | 4.602 | 25 µg/mL (≈ 65.5 µM) | 4 | 100 µg/mL (≈ 262 µM) | 50 µg/mL (≈ 131 µM) | 4.301 | 50 µg/mL (≈ 131 µM) | 4 | 100 µg/mL (≈ 262 µM) | 4 | 100 µg/mL (≈ 262 µM) | 4 | 100 µg/mL (≈ 262 µM) | 4.301 | 50 µg/mL (≈ 131 µM) | 
C[C@@H]1/C(=N/NC(N)=S)C[C@@H](c2ccccc2)O[C@H]1c1ccccc1 | 4 | 100 µg/mL (≈ 295 µM) |  |  | 3.698 | 200 µg/mL (≈ 589 µM) | 50 µg/mL (≈ 147 µM) |  |  | 4 | 100 µg/mL (≈ 295 µM) | 4.301 | 50 µg/mL (≈ 147 µM) | 3.698 | 200 µg/mL (≈ 589 µM) |  |  | 
C[C@@H]1/C(=N/NC(=S)Nc2ccccc2)C[C@@H](c2ccccc2)O[C@H]1c1ccccc1 | 4.301 | 50 µg/mL (≈ 120 µM) | 4.301 | 50 µg/mL (≈ 120 µM) | 4.301 | 50 µg/mL (≈ 120 µM) | 100 µg/mL (≈ 241 µM) | 4.301 | 50 µg/mL (≈ 120 µM) | 4 | 100 µg/mL (≈ 241 µM) | 4.903 | 12.5 µg/mL (≈ 30.1 µM) | 4 | 100 µg/mL (≈ 241 µM) | 4 | 100 µg/mL (≈ 241 µM) | 4
C[C@@H]1[C@H](O)[C@@H](C)/C=C/C=C/C=C/C=C/C=C/C=C/C=C/[C@H](O[C@@H]2O[C@H](C)[C@@H](O)[C@H](N)[C@@H]2O)C[C@@H]2O[C@](O)(C[C@@H](O)C[C@@H](O)[C@H](O)CC[C@@H](O)C[C@@H](O)CC(=O)O[C@H]1C)C[C@H](O)[C@H]2C(=O)O [AMPHOTERICIN B] |  |  |  |  |  |  |  |  |  |  |  | 4.602 | 25 µg/mL (≈ 27.1 µM) |  | 25 µg/mL (≈ 27.1 µM) | 4.301 | 50 µg/mL (≈ 54.1 µM) | 
C[C@@H]1/C(=N\NC(=S)Nc2ccccc2)[C@@H](C)[C@H](c2ccc(Br)cc2)O[C@@H]1c1ccc(Br)cc1 | 4.602 | 25 µg/mL (≈ 42.6 µM) | 4 | 100 µg/mL (≈ 170 µM) | 5.204 | 6.25 µg/mL (≈ 10.6 µM) | 12.5 µg/mL (≈ 21.3 µM) | 4.602 | 25 µg/mL (≈ 42.6 µM) | 4.602 | 25 µg/mL (≈ 42.6 µM) | 4.903 | 12.5 µg/mL (≈ 21.3 µM) | 5.204 | 6.25 µg/mL (≈ 10.6 µM) | 4.602 | 25 µg/mL (≈ 42.6 µM) | 
COc1ccc([C@H]2O[C@@H](c3ccc(OC)cc3)[C@H](C)/C(=N/NC(N)=S)[C@H]2C)cc1 | 4.903 | 12.5 µg/mL (≈ 30.2 µM) | 4.602 | 25 µg/mL (≈ 60.5 µM) | 4.301 | 50 µg/mL (≈ 121 µM) | 50 µg/mL (≈ 121 µM) | 4.903 | 12.5 µg/mL (≈ 30.2 µM) | 4.301 | 50 µg/mL (≈ 121 µM) | 3.698 | 200 µg/mL (≈ 484 µM) | 4.903 | 12.5 µg/mL (≈ 30.2 µM) | 4.301 | 50 µg/mL (≈ 121 µM) | 
Cc1ccc([C@H]2O[C@@H](c3ccc(C)cc3)[C@H](C)/C(=N/NC(=S)Nc3ccccc3)[C@H]2C)cc1 | 4 | 100 µg/mL (≈ 219 µM) | 4.301 | 50 µg/mL (≈ 109 µM) | 4 | 100 µg/mL (≈ 219 µM) | 50 µg/mL (≈ 109 µM) | 4.301 | 50 µg/mL (≈ 109 µM) |  |  | 4.301 | 50 µg/mL (≈ 109 µM) | 5.204 | 6.25 µg/mL (≈ 13.7 µM) | 4.602 | 25 µg/mL (≈ 54.6 µM) | 
